Experimental data from patent US5936097A, “4,9-ethano-benzo(F)isoindole derivatives as farnesyl transferase inhibitors” (Rhone-Poulenc Rorer, S.A., priority 1995, dated 1999).
Where a name gives a salt, the structure may show the parent alone.

Target: T1, human farnesyl transferase (Homo sapiens, UniProt P49354+P49356)
T1 construct: human farnesyl transferase purified from THP1 cell cultures; endogenous in cells; host or cells: THP1 cell cultures (enzyme purified from the cells)
Assay: inhibition of farnesyl transferase ((3H) farnesyl transfer from (3H) FPP to p21 H-ras)
Assay type: biochemical
Conditions: not given
Description: Farnesyl transferase activity is determined by the amount of (^3 H) farnesyl transferred from (^3 H) farnesylpyrophosphate [(^3 H) FPP] to the p21 H-ras protein. The standard reaction mixture is composed, for a final volume of […], of 50 mM Tris-HCl, 5 mM MgCl2, 5 mM dithiotreitol, 0.2% octyl b-D-glucopyranoside, 200 picomol p21 H-ras, 4.5 picomol (^3 H) FPP (activity 61000 dpm/picomol).
Reaction is initiated by adding approximately 5 ng of human farnesyl transferase purified from THP1 cell cultures. After incubation for 20 minutes at 37° C. in a microtitration plate containing 96 1-cm^3 wells per plate (Titer Plate®, Beckman), the reaction is stopped by adding 0.4 cm^3 of 0.1% SDS in methanol at 0° C. The mixture is then treated with 0.4 cm^3 of 30% trichloroacetic® acid (TCA) in methanol. The plates are left in ice for 1 hour. The precipitated contents are then retained on Filtermat®, Pharmacia), glass® fibre membranes with the filtration unit (Combi Cell Harvester®, Skatron), and rinsed with 6% trichloroacetic acid in distilled water. The membranes are dried in a microwave oven, then impregnated with scintillation medium by melting of Meltilex® (Pharmacia) under hot air, and lastly counted in cpm in a b-Plate counter® (LKB). Each test is repeated 3 times.
The unit of activity is defined as 1 picomole of (^3 H) FPP transferred to p21 H-ras in 20 minutes.
The percentage inhibition values are obtained by comparison of the tests with and without inhibitor after deduction of blanks, the IC50 values being measured on the basis of the inhibitions obtained with 9 different concentrations using Enzfitter® or Grafit® software.

First: O=C(Cc1ccccc1Cl)N1C[C@@H]2[C@]3(c4ccccc4)CC[C@@H](c4ccccc43)[C@]2(C(=O)O)C1 (relative stereo) [Example 61, (3aRS,4SR,9SR,9aRS)-4,9-Ethano-2-(2-chlorophenyl)acetyl-9-phenyl-2,3,3a,4,9,9a-hexahydro-1H-benzo[f]isoindole-3a-carboxylic acid]
Second: Cc1ccccc1CC(=O)N1C[C@@H]2[C@]3(c4ccccc4)CC[C@@H](c4ccccc43)[C@]2(C(=O)O)C1 (relative stereo) [Example 62, (3aRS,4SR,9SR,9aRS)-4,9-Ethano-2-(2-methylphenyl)acetyl-9-phenyl-2,3,3a,4,9,9a-hexahydro-1H-benzo[f]isoindole-3a-carboxylic acid]
The IC50 of the first is 4.1-fold higher: 4700 nM for the first, 1150 nM for the second.

Compared with `O=C(Cc1ccccc1F)N1C[C@@H]2[C@]3(c4ccccc4)CC[C@@H](c4ccccc43)[C@]2(C(=O)O)C1` (relative stereo) [Example 63, (3aRS,4SR,9SR,9aRS)-4,9-Ethano-2-(2-fluorophenyl)acetyl-9-phenyl-2,3,3a,4,9,9a-hexahydro-1H-benzo[f]isoindole-3a-carboxylic acid], `CSc1ccccc1CC(=O)N1CC2C3(c4ccccc4)CCC(c4ccccc43)C2(C(=O)O)C1` (single isomer, unassigned) [Example 31] is 11-fold lower in IC50: 7000 nM for the first, 620 nM for the second. The second is the more potent here.

First: COc1ccccc1CC(=S)N1C[C@@H]2[C@]3(c4ccccc4)CC[C@@H](c4ccccc43)[C@]2(C(=O)O)C1 (relative stereo) [Example 65, (3aRS,4SR,9SR,9aRS)-4,9-Ethano-2-(2-methoxyphenyl)thioacetyl-9-phenyl-2,3,3a,4,9,9a-hexahydro-1H-benzo[f]isoindole-3a-carboxylic acid]
Second: CCOc1ccccc1CC(=O)N1C[C@H]2[C@@]3(c4ccccc4)CC[C@H](c4ccccc43)[C@@]2(C(=O)O)C1 (relative stereo) [Example 74, (3aRS,4SR,9SR,9aRS)-4,9-ethano-2-(2-ethoxyphenyl)acetyl-9-phenyl-2,3,3a,4,9,9a-hexahydro-1H-benzo[f]isoindole-3a-carboxylic acid]
The IC50 of the first is 2.2-fold higher: 410 nM for the first, 190 nM for the second.

Going from `COc1ccccc1NC(=O)N1C[C@@H]2[C@]3(c4ccccc4)CC[C@@H](c4ccccc43)[C@]2(C(=O)O)C1` (relative stereo) [Example 66, (3aRS,4SR,9SR,9aRS)-4,9-Ethano-2-(2-methoxyphenyl)aminocarbonyl-9-phenyl-2,3,3a,4,9,9a-hexahydro-1H-benzo[f]isoindole-3a-carboxylic acid] to `COc1ccccc1[C@@H](C)C(=O)N1CC2C3(c4ccccc4)CCC(c4ccccc43)C2(C(=O)O)C1` (single isomer, unassigned) [Example 33], the IC50 falls from 9200 nM to 2030 nM (4.5-fold).

With `COc1ccccc1[C@H](C)C(=O)N1CC2C3(c4ccccc4)CCC(c4ccccc43)C2(C(=O)O)C1` (single isomer, unassigned) [Example 34] the IC50 was 590 nM.

Same assay, conditions: human farnesyl transferase purified from THP1 cell cultures; p21 H-ras substrate; 20 minutes at 37° C.; 9 concentrations; read-out: in vitro inhibitory activity IC50

`O=C(Cc1ccccc1OCc1ccccc1)N1C[C@@H]2[C@]3(c4ccccc4)CC[C@@H](c4ccccc43)[C@]2(C(=O)O)C1` (relative stereo) [Example 64, (3aRS,4SR,9SR,9aRS)-4,9-Ethano-2-(2-benzyloxyphenyl)acetyl-9-phenyl-2,3,3a,4,9,9a-hexahydro-1H-benzo[f]isoindole-3a-carboxylic acid] and `CCCOc1ccccc1CC(=O)N1C[C@H]2[C@@]3(c4ccccc4)CC[C@H](c4ccccc43)[C@@]2(C(=O)O)C1` (relative stereo) [Example 80, (3aRS,4SR,9SR,9aRS)-4,9-ethano-9-phenyl-2-(2-n-propoxyphenyl)acetyl-2,3,3a,4,9,9a-hexahydro-1H-benzo[f]isoindole-3a-carboxylic acid] are within 1.5-fold of each other in IC50: 750 nM for the first, 800 nM for the second.

Going from `COc1ccccc1CC(=O)N1C[C@H]2[C@@]3(c4ccccc4)CC[C@H](c4ccccc43)[C@@]2(C(=O)NCC(=O)O)C1` (relative stereo) [Example 67, N-[(3aRS,4SR,9SR,9aRS)-4,9-ethano-2-(2-methoxy-phenyl)acetyl-9-phenyl-2,3,3a,4,9,9a-hexahydro-1H-benzo[f]isoindol-3a-yl]carbonylglycine] to `COC(=O)CNC(=O)[C@]12CN(C(=O)Cc3ccccc3OC)C[C@H]1[C@@]1(c3ccccc3)CC[C@@H]2c2ccccc21` (relative stereo) [Example 69, methyl ester of N-[(3aRS,4SR,9SR,9aRS)-4,9-ethano-2-(2-methoxyphenyl)acetyl-9-phenyl-2,3,3a,4,9,9a-hexahydro-1H-benzo[f]isoindol-3a-yl]carbonylglycine], the IC50 rises from 950 nM to 9100 nM (9.6-fold). The first is the more potent here.

`COc1ccccc1CC(=O)N1C[C@H]2[C@@]3(c4ccccc4)CC[C@H](c4ccccc43)[C@@]2(C(=O)N(C)OC)C1` (relative stereo) [Example 68, (3aRS,4SR,9SR,9aRS)-N-methoxy-N-methyl-4,9-ethano-2-(2-methoxy-phenyl)acetyl-9-phenyl-2,3,3a,4,9,9a-hexahydro-1H-benzo[f]isoindole-3a-carboxamide] and `COc1ccc2c(c1)[C@]1(c3ccccc3)CC[C@H]2[C@@]2(C(=O)O)CN(C(=O)Cc3ccccc3OC)C[C@@H]12` (relative stereo) [Example 70, (3aRS,4SR,9SR,9aRS)-4,9-ethano-7-methoxy-2-(2-methoxy-phenyl)acetyl-9-phenyl-2,3,3a,4,9,9a-hexahydro-1H-benzo[f]isoindole-3a-carboxylic acid] are within 1.5-fold of each other in IC50: 2250 nM for the first, 2850 nM for the second.

`C=Cc1ccc2c(c1)[C@]1(c3ccccc3)CC[C@H]2[C@@]2(C(=O)O)CN(C(=O)Cc3ccccc3OC)C[C@@H]12` (relative stereo) [Example 73, (3aRS,4SR,9SR,9aRS)-4,9-ethano-2-(2-methoxyphenyl)acetyl-9-phenyl-7-vinyl-2,3,3a,4,9,9a-hexahydro-1H-benzo[f]isoindole-3a-carboxylic acid] and `COC(=O)[C@]12CN(C(=O)Cc3ccccc3OC)C[C@H]1[C@@]1(c3ccccc3)CC[C@@H]2c2cc(C=O)ccc21` (relative stereo) [Example 97, methyl ester of (3aRS,4SR,9SR,9aRS)-4,9-ethano-6-formyl-2-[(2-methoxyphenyl)acetyl]-9-phenyl-2,3,3a,4,9,9a-hexahydro-1H-benzo[f]isoindole-3a-carboxylic acid] are within 1.5-fold of each other in IC50: 3150 nM for the first, 3950 nM for the second.

Going from `O=C(Cc1cccc2c1OCCC2)N1C[C@H]2[C@@]3(c4ccccc4)CC[C@H](c4ccccc43)[C@@]2(C(=O)O)C1` (relative stereo) [Example 76, (3aRS,4SR,9SR,9aRS)-2-(8-chromanyl)acetyl-4,9-ethano-9-phenyl-2,3,3a,4,9,9a-hexahydro-1H-benzo[f]isoindole-3a-carboxylic acid] to `COc1ccccc1CC(=O)N1C[C@H]2[C@@]3(c4ccccc4)CC[C@H](c4ccccc43)[C@@]2(C(=O)NC(CC(=O)O)C(=O)O)C1` (stereo partly drawn) [Example 6, N-[(3aRS, 4SR, 9SR, 9aRS)-4,9-ethano-2-(2-methoxyphenyl)acetyl-9-phenyl-2,3,3a,4,9,9a-hexahydro-1H-benzo[f]isoindolyl-3a-carbonyl]aspartic acid], the IC50 falls from 3650 nM to 1100 nM (3.3-fold). The second is the more potent here.

First: C/C=C(/C(=O)N1C[C@H]2[C@@]3(c4ccccc4)CC[C@H](c4ccccc43)[C@@]2(C(=O)OC)C1)c1ccccc1OC (relative stereo) [Example 77, methyl ester of (3aRS,4SR,9SR,9aRS)-4,9-ethano-2-[2(E)-(2-methoxyphenyl)-2-butenoyl]-9-phenyl-2,3,3a,4,9,9a-hexahydro-1H-benzo[f]isoindole-3a-carboxylic acid]
Second: C=C(C(=O)N1CC2C3(c4ccccc4)CCC(c4ccccc43)C2(C(=O)N[C@H](C)c2ccccc2)C1)c1ccccc1OC (single isomer, unassigned) [Example 9]
The IC50 of the first is 35-fold higher: 6700 nM for the first, 190 nM for the second. The second is the more potent here.

Compared with `COc1ccccc1CC(=O)N1C[C@H]2[C@@]3(c4ccccc4)CC[C@H](c4ccccc43)[C@@]2(C(=O)NC(CCC(=O)O)C(=O)O)C1` (stereo partly shown) [Example 7], `COc1ccccc1CC(=O)N1C[C@H]2[C@@]3(c4ccccc4)CC[C@H](c4ccccc43)[C@@]2(C(=O)NC(Cc2c[nH]cn2)C(=O)O)C1` (stereo partly drawn) [Example 8, hydrochloride of N-[(3aRS, 4SR, 9SR, 9aRS)-4,9-ethano-2-(2-methoxyphenyl)acetyl-9-phenyl-2,3,3a,4,9,9a-hexahydro-1H-benzo[f]isoindolyl-3a-carbonyl]histidine] is 3.1-fold lower in IC50: 580 nM for the first, 190 nM for the second. The second is the more potent here.

`COc1ccccc1CC(=O)N1C[C@H]2[C@@]3(c4ccccc4)CC[C@H](c4ccccc43)[C@@]2(NC(=O)C(N)CCSC)C1` (stereo partly drawn) [Example 13, (3aRS, 4SR, 9SR, 9aRS)-3a-methionylamino-4,9-ethano-2-(2-methoxyphenyl)acetyl-9-phenyl-2,3,3a,4,9,9a-hexahydro-1H-benzo[f]isoindole] and `COc1ccccc1CC(=O)N1C[C@H]2[C@@]3(c4ccccc4)CC[C@H](c4ccccc43)[C@@]2(NC(=O)C(CO)NC(=O)OC(C)(C)C)C1` (stereo partly shown) [Example 14] are within 1.5-fold of each other in IC50: 8800 nM for the first, 8700 nM for the second.
